Assay results as given in article PMC6394990, “Detailed characterization of the solution kinetics and thermodynamics of biotin, biocytin and HABA binding to avidin and streptavidin” (PLoS ONE, 2019).
“And” between values parts separate entries of the source, which are not always exact repeats. Equal entries are not always repeated.

Assays:
[1] = target: T1, streptavidin (SAV) (Streptomyces avidinii, UniProt P22629); assay: Dissociation (displacement/replacement) of dye-labeled biotin complexes by unlabeled B7; type: binding; settings: for half-time of displacement: SAV-BcO AB1
T1 construct: purchased Sigma Aldrich (St. Louis, MO)
T1 sequence (P22629 25-183): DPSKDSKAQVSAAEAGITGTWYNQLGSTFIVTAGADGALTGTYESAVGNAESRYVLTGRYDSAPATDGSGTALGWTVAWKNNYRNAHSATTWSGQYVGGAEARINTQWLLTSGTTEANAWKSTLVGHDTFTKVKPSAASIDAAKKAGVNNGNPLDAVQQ
Procedure: Biotin dissociation was determined using labelled biotin (BcO and BFl) displaced by unlabeled biotin using minimally occupied and fully occupied binding sites. In the minimally occupied measurements, SAV is prepared with less than one site on average occupied by labelled biotin (AB1), using 800 nM SAV and 40 nM of BcO or BFl. For saturated SAV-labelled biotin (AB4) complexes, equimolar binding sites and labelled ligand were prepared, 40 nM SAV and 40 nM of BcO or BFl. The AB1 complexes were challenged in displacement experiments with several concentrations of unlabeled B7 (1500 nM, 1750 nM, 2000 nM and 2500 nM) at 20 ± 0.1°C. In AB1, SAV had 760 nM in open sites, therefore the total challenging B7 concentrations were 740 nM, 990 nM, 1240 nM and 1740 nM, respectively. […] The 40 nM AB4 complexes were challenged with unlabeled B7 concentrations of 400 nM (10X) and 1600 nM (40X) at 20 ± 0.1°C. The dissociation reactions of AV complexes were carried out with a preformed complex of 20 nM BFl or BcO and 260 nM AV for a filling model of AB1 and challenged with unlabeled B7 at 2,000 nM.
The rss measurements were collected using the Giblin-Parkhurst modification of the Wampler-Desa method as described previously. The fluorescence signal was detected in a model A-1010 Alphascan fluorimeter (Photon Technologies, Inc., Birmingham, NJ) equipped with an R928 PMT (Hamamatsu, Bridgewater, NJ). The excitation was provided by an Ar^+ ion laser (Coherent Innova 70–4 Argon, Santa Clara, CA) at 488 nm and 5–10 mW of power incident on the sample. A photoelastic modulator (PEM-80; HINDS International, Inc., Portland, OR) was placed between the laser source and the sample compartment with a retardation level of 1.22π, and the PEM stress axis orientated 45° with respect to the E vector of the laser beam. Two signals were acquired with the PEM alternating between “on” and “off” positions for 10 seconds and the data fitted to a least squared straight line to minimize noise. A minimum of six of these independent measurements were averaged to acquire the rss values. The fluorimeter G factor was determined using a film polarizer and analyzer with an excitation at 488 nm provided by a xenon arc lamp (model A1010, Photon Technologies Inc, Princeton, NJ). The dissociation reactions of dye-labeled B7 and protein complexes were monitored by fluorescence changes and were also collected in the fluorimeter described above.
The dissociation reactions were followed by fluorescence changes, F¯(t) , in the fluorimeter and laser setup described above and tuned to 488 nm under discontinuous excitation to prevent photobleaching distortion. The signal was best fitted to the following dissociation model (Eq 10), in which the dye labeled complex dissociates into the labeled B7 probe (BFl or BcO) and the respective protein (AV or SAV).

[2] = Absorbance and fluorescence emission spectra, unbound probe; type: physicochemical; settings: unbound dye
Procedure: (§1) The lifetimes (τ), steady state anisotropies (rss), time-resolved anisotropies (rt) and quantum yields (QY) of the complexes (at 20 ± 0.1°C and pH 8) were collected with a dye-labeled B7 probe concentration of 20–40 nM and 1040–2080 nM of either protein (AV or SAV) to ensure that only one binding site in the tetramer was filled with a ligand (AB1 filling model).
(§2) The QY values were obtained by using a reference fluorophore of known quantum yield and were calculated according to Parker and Rees, where the reference dye was fluorescein in 0.1N sodium hydroxide solution [46]. The emission fluorescence scans were collected from 480 nm to 700 nm with the excitation light set at 460 nm provided by the xenon arc lamp described above. These measurements were made on the AB1 complexes at high protein concentration.
(§3) Supplementary file pone.0204194.s001.docx: S1 Fig Absorbance spectra of dye-labeled B7 probes and respective complexes with AV and SAV. […] The spectra are normalized to the calculated molar absorptivies. […] The labeled probes and protein concentrations were 1 μM and 10 μM, respectively. (DOCX) Click here for additional data file.
(§4) Supplementary file pone.0204194.s002.docx: S2 Fig Fluorescence emission spectra of dye-labeled B7 and respective complexes with AV and SAV. […] The probe and protein concentrations were 20 nM and 1040 nM (AB1 filling model), respectively. (DOCX) Click here for additional data file.

[3] = target: T1, streptavidin (SAV); assay: Fluorescence lifetimes, SAV complex; type: physicochemical; settings: for t (1), fluorescence lifetime: complex with SAV, t for BFl and BcO, average lifetime for B-DNAds*Fl
Procedure: as §1
(§5) The lifetimes were collected in a FluoTime100 fluorescence spectrometer (PicoQuant, GmbH, Berlin, Germany) with the excitation light source provided by a picosecond pulsed diode laser (PicoQuant, GmbH, Berlin, Germany) at 470 nm and 20 MHz. The emission was collected at 520 nm through a non-fluorescing 520 nm interference filter (Oriel Corp., Stratford, CT) followed by a liquid filter of 1cm path length containing 24 mM acetate buffered dichromate at pH 4, between the sample and detector to eliminate traces of excitation light. The fluorescence decays were fit by a nonlinear least-squares minimization based on the Marquardt algorithm embedded in the Fluofit software (PicoQuant GmbH). Twenty-eight decays were collected per sample, the decays were grouped in four sets, consisting of seven sample decays and one Instrument Response Function, IRF, for deconvolution proposes. The decay sets were globally fitted to mono- or bi-exponential decay models that were discriminated using the statistical parameter χ^2. The rt data were acquired with the fluorimeter described above equipped with a polarizer and an analyzer to acquire the parallel VV(t) and perpendicular VH(t) decays. The PicoQuant G factor was calculated according to: G = ∫HV(t)dt/∫HH(t)dt, where HV(t) and HH(t) were the decays collected with the emission polarizer selecting vertical and horizontal E-vector passing orientations, respectively, and the excitation polarizer set at horizontally position.

[4] = Fluorescence lifetimes, unbound probe; type: physicochemical; settings: unbound dye; t for BFl and BcO, average lifetime for B-DNAds*Fl; in ns
Procedure: as §1
as §5, with “Twenty-eight decays were collected per sample, the decays were grouped in four sets, consisting of seven sample decays and one Instrument Response Function, IRF, for deconvolution proposes. The decay sets were globally fitted to mono- or bi-exponential decay models that were discriminated using the statistical parameter χ^2. The rt data were acquired with the fluorimeter described above equipped with a polarizer and an analyzer to acquire the parallel VV(t) and perpendicular VH(t) decays.” left out

[5] = target: T2, avidin (AV) (Gallus gallus, UniProt P02701); assay: Absorbance and fluorescence emission spectra, AV complex; type: physicochemical; settings: for Maximum Absorbance / Maximum Emission: AV complex (AB1); for Abs (nm) / Emission (nm): complex with AV
T2 construct: purchased Calbiochem (La Jolla, CA)
T2 sequence (P02701 25-152): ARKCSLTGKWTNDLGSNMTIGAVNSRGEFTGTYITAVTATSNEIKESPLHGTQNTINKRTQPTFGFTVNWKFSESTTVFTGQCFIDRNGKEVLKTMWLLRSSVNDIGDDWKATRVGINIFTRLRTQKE
Procedure: as §1, §2, §3, §4

Structure (SMILES)	Abs (nm) [2]	Emission (nm) [2]	t (1), fluorescence lifetime [3]	t (1), fluorescence lifetime [4]	Maximum Absorbance [5]	Maximum Emission [5]	Abs (nm) [5]	Emission (nm) [5]	other results
O=C(CCCC[C@@H]1SC[C@@H]2NC(=O)N[C@@H]21)NCCNC(=O)c1ccc(-c2c3ccc(=O)cc-3oc3cc(O)ccc23)c(C(=O)O)c1 [BFl, Biotin-4-fluorescein]	494 nm	530 nm	3.69 ± 0.01	4.03 ± 0.01	498 nm	528 nm	498 nm	528 nm	release (displacement) of the bound probe ([1]; SAV-BFl complex, AB1, 30°C, challenging B7 1400 nM): 5%; Σαiτi (integrated lifetime) ([3]; SAV complex): 3.70 ± 0.05 ns; α1 ([3]; SAV complex): 0.61 ± 0.03; α2 ([3]; SAV complex): 0.39 ± 0.03; τ1 ([3]; SAV complex): 4.10 ± 0.02 ns; τ2 ([3]; SAV complex): 3.1 ± 0.02 ns; Lifetime τ ([3]; SAV complex, di-ionic fluorescein species): 4.1 ns and 4.1 ± 0.1 ns; Lifetime τ ([3]; SAV complex, mono-ionic fluorescein species): 3.0 ns and 3.0 ± 0.1 ns
NC(CCCCNC(=O)CCCC[C@@H]1SC[C@@H]2NC(=O)N[C@@H]21)C(=O)NCCCCCNC(=O)c1ccc(-c2c3cc(F)c(=O)cc-3oc3cc(O)c(F)cc23)c(C(=O)O)c1 (some centres unmarked) [BcO, Oregon green 488 Biocytin]	495 nm	523 nm	3.98 ± 0.01	3.75 ± 0.04	497 nm	524 nm	497 nm	524 nm	half-time of displacement ([1]; 20°C, challenging B7 740 nM): 56.6 s; half-time of displacement ([1]; 20°C, challenging B7 1240 nM): 33.9 s; half-time of displacement ([1]; 20°C, challenging B7 1740 nM): 24.2 s; release amplitude of the displacement reaction ([1]; SAV-BcO complex challenged with unlabeled B7, 20°C): ~ 79% and 79 ± 1%; Lifetime τ ([3]; SAV complex (AB1), 20°C, pH 8): 3.98 ± 0.01 ns
